Assay results reported in US5089479A, “Adhesion of Mycoplasma pneumoniae and Mycoplasma hominus to sulfatide” (priority 1988, dated 1992).
Entries after “also recorded” stand apart in the source; their conditions may differ.

Columns and labels:
[1] = molecular target: M. pneumoniae binding to sulfatide; test: Inhibition of M. pneumoniae binding to sulfatide adsorbed on plastic; design: species or system Mycoplasma pneumoniae strain M129
Method: (§1) Virulent M. pneumoniae strain M129, passage 5-15, were grown and metabolically labelled with [^3 H]palmitic acid, 12-17 Ci/mole, as described by Chandler et al. in Infect. Immun. 37: 942, 1982. The organisms were passed four times through a 26 gauge needle and suspended to approximately 10^7 cpm/ml of degassed RPMI 1640 medium containing 1% bovine serum albumin and 25 mM HEPES, pH 7.3.
(§2) The binding of M. pneumoniae to purified glycolipids immobilized in microtiter plates was measured as described by Krivan et al. in Proc. Natl. Acad. Sci., op. cit. Purified glycolipids were serially diluted in 25 μl of methanol containing 0.1 μg each of the auxiliary lipids cholesterol and phosphatidylcholine. After the solutions were dried by evaporation, the wells were filled with TBS-BSA, emptied after one hour, rinsed with RPMI-BSA, and incubated with 25 μl of [^3 H]-M. pneumoniae, approximately 10^7 cpm/ml RPMI-BSA. After incubation for two hours at 37° C., unless otherwise stated, the wells were washed five times with saline and bound M. pneumoniae was quantified by scintillation counting in Aquasol. For inhibition studies, various polysaccharides were serially diluted in […] of [^3 H]-M. pneumoniae.
To obtain the results shown in FIG. 4, polysaccharides were serially diluted in 25 μl of RPMI-BSA in microtiter wells previously coated with 1 μg of purified sulfatide. Binding was determined after incubation of two hours at 37° C. with 25 μl of [^3 H]-M. pneumoniae with the indicated concentration of dextran ( .circle. ) or dextran sulfate.

[2] = system: M. pneumoniae adhesion to WiDr cells; test: Inhibition of M. pneumoniae adhesion to WiDr human colon adenocarcinoma cell monolayers; assay type: cell-based
Method: (§3) Adhesion of [^3 H]-M. pneumoniae to cells on glass covered slips was measured by a modification of a method previously described by Chandler et al., Infect. Immun., op. cit. WiDr human colon adenocarcinoma, ATCC CCL 218 was grown in Eagle's minimal essential medium with 10% fetal calf serum in a 5% CO2 atmosphere at 37° C. The cells were removed with trypsin and plated on 12 mm round glass coverslips in 24-well tissue culture plates and grown for three days. Control coverslips were preincubated in medium without cells. The coverslips were washed in serum-free medium, then incubated in RPMI-BSA for fifteen minutes. The medium was removed and labelled M. pneumoniae suspended in 0.5 ml of RPMI-BSA were added to each well. The plates were incubated on a rocking table for 60 minutes at 37° C. The coverslips were washed by dipping in saline six times, and the bound radioactive bacteria were determined by scintillation counting. For inhibition studies, the inhibitors were added to M. pneumoniae prior to adding the bacteria to the coverslips.
Because virulent strains of M. pneumoniae adhere to mammalian cells, monolayers of WiDr cells were used to determine if dextran sulfate inhibits adhesion of the organism. [^3 H] -labelled M. pneumoniae was incubated with WiDr cell monolayers attached to coverslips in triplicate with an without dextran sulfate, as shown in Table II. […] In each experiment, 10 μg/ml dextran sulfate inhibited more than 1 μg/ml, but 100 μg/ml dextran sulfate caused no further inhibition. Thus, maximal inhibition was obtained with approximately 10 μg/ml of dextran sulfate. Similar results were obtained with MRC5 lung fibroblasts where in three experiments a mean of 47% of M. pneumoniae adhesion was inhibited by dextran sulfate.
(§4) Adhesion of labelled M. pneumoniae to WiDr cells on glass cover slips was determined as described previously. For inhibition studies, dextran sulfate and 3'-sialyllactose were dissolved in RPMI-BSA and the pH was adjusted to 7.4 with NaOH. The inhibitors were added to wells containing washed cover slips with attached WiDr cells or blank cover slips preincubated in medium or tris-BSA. Labelled M. pneumoniae were added immediately and incubated with slow rocking for sixty minutes at 37° C. After the coverslips were washed by dipping six times in saline, bound M. pneumoniae were determined by scintillation counting in Aquasol. […] After washing to remove the unbound organisms, the bound mycoplasma were determined by scintillation counting. Binding to uncoated wells was 3% of the applied radioactivity.
Adhesion of [^3 H]-M. pneumoniae to WiDr cells growing on 13 mm glass cover slips was determined as described above. Inhibition by dextran sulfate or 3'-sialyllactose at the indicated concentrations was calculated relative to control binding determined in RPMI/BSA without inhibitors. The results are presented as percent inhibition (mean±S.D. n=4 with n=8 for determination of control binding without inhibitor).

[3] = system: M. pneumoniae binding to laminin; test: Inhibition of M. pneumoniae binding to laminin adsorbed on plastic; design: species or system Mycoplasma pneumoniae strain M129; details: for IC50: oligosaccharide concentrations as sialic acid, read-out: I.D.50, substrate laminin
Method: (§5) Glycoproteins dissolved in 0.01 M sodium phosphate buffer, pH 7.4, containing 150 mM NaCl, 1 mM CaCl2, and 0.01% NaN3 were adsorbed onto plastic polyvinylchloride […] microtiter plates by incubation for 16 hours at 4° C. The unbound proteins were removed, and the wells were filled with tris-BSA and incubated for 30 minutes at room temperature. The wells were rinsed with RPMI1640 containing 25 mM HEPES, pH 7.3, and 1% bovine serum albumin. M. pneumoniae strain M129 labelled with [^3 H]-palmitate were dispersed in RPMI-BSA by passing four times through a 26 gauge needle, and 50 μl of the suspension was applied to the wells. After incubation for 60 minutes at 37° C., the wells were washed five times with saline and the labelled M. pneumoniae bound to the proteins were quantified by scintillation counting in Aquasol.
For inhibition studies, sugars in 25 μl of RPMI-BSA were added to wells coated with 10 μg/ml laminin followed by 25 μl of [^3 H]-M. pneumoniae. Binding was determined to both laminin-coated and uncoated wells in triplicate at each inhibitor concentration and in the absence of inhibitor. In some experiments, the adsorbed proteins were pretreated with neuraminidase. After adsorption of the proteins and incubation in tris-BSA, the wells were rinsed three times with 50 mM sodium acetate, pH 5.5, containing 150 mM NaCl, 5 mM CaCl2, 1 mg/ml bovine serum albumin, and 1 mM phenylmethanesulfonyl fluoride. The wells were incubated with 0.05 units/ml neuraminidase in the same buffer or with buffer without enzyme overnight at 20° C. The wells were rinsed three times with tris-BSA, and M. pneumoniae binding was determined as described above.

[4] = system: M. pneumoniae adhesion to coverslips; test: Inhibition of nonspecific adhesion of M. pneumoniae to coverslips without cells; assay type: binding, Mycoplasma pneumoniae strain M129
Method: as §3, §4

[5] = system: M. pneumoniae; test: M. pneumoniae adhesion to immobilized glycoproteins adsorbed on plastic; assay type: binding, Mycoplasma pneumoniae strain M129; details: for M. pneumoniae adhesion to immobilized glycoprotein (in words): adsorbed on plastic
Method: as §5, with “Aquasol. […]” for “Aquasol.”

[6] = system: erythrocyte adhesion to M. pneumoniae; details: relative to fetuin; Loomes et al.; cited from earlier work
[7] = system: M. pneumoniae; test: Mycoplasma overlay assay: binding of [3H]-M. pneumoniae to glycolipids on thin layer chromatograms; design: species or system Mycoplasma pneumoniae strain M129; details: for binding of M. pneumoniae to glycolipid (in words): thin layer chromatogram overlay
Method: as §1
M. pneumoniae were bound to glycolipids separated on thin-layer chromatograms as described in detail for other bacteria by Krivan et al., Proc. Natl. Acad. Sci. 85: 6157-6161, 1988, and Krivan et al., Arch. Biochem. Biophys. 260:493-496, 1988. Briefly, glycolipids were separated by thin-layer chromatography on aluminum-backed silica gel high-performance plates developed with chlooform:methanol:0.25% CaCl2 in water (60:35:8). After chromatography, the plates were coated with 0.1% polyisobutylmethacrylate, soaked in 0.05 M Tris-HCl, pH 7.6, containing […] sodium chloride, 5 mM CaCl2, 0.2 mM phenylmethane-sulfonyl fluoride, and 1% bovine serum albumin (TBS-BSA) and incubated for three hours at 25° C. with 60 μl/cm^2 of [^3 H]-labelled M. pneumoniae, approximately 10^7 cpm/ml of RPMI-BSA. The plates were gently washed five times in 0.01 M sodium phosphate, pH 7.2, containing 0.15 M sodium chloride (PBS) to remove unbound organisms, dried, and exposed for 24 hours to Ultrofilm ^3 H (2208-190) high speed film.
To obtain the results shown in FIG. 1, glycolipids were chromatographed on aluminum-backed silica gel HPTLC plates developed in chloroform/methanol/0.25% CaCl2 in water, 60:35:8. The plates were coated with plastic, soaked in Tris-BSA, and incubated for three hours at 25° C. with [^3 H]-palmitate-labelled M. pneumoniae suspended in RPMI 1640 containing 1% BSA and 25 mM HEPES, pH 7.3, as described above (Panel A), or sprayed with orcinol reagent to identify glycolipids (Panel B). Lane a, acidic glycolipid standards sulfatide (0.5 μg), GM3 (2 μg), GM2 (2 μg), GD1a (2 μg), GD1b (2 μg), GT1b (2 μg); lane b, neutral standards galactosyl ceramide (4 μg), lactosylceramide (4 μg), globotriaosylceramide (2 μg), c2(0.5 μg). and c3 (o.1 μg); lane d, seminolipid (2 μg); lane e, cholesterol 3 -sulfate (2 μg); lane f, human trachea acidic glycolipids from 100 mg wet weight […]; lane h, α2-3sialylparagloboside (2 μg); lane 1, I-active monosialylganglioside from bovine erythrocytes (2 μg).

[8] = system: M. pneumoniae; test: Solid-phase binding of [3H]-M. pneumoniae to purified glycolipids immobilized in microtiter plates; design: species or system Mycoplasma pneumoniae strain M129
Method: as §1, §2
To obtain the results shown in FIG. 2, lipids in […] each of the auxiliary lipids cholesterol and phosphatidylcholine were evaporated in flat bottom wells of polyvinylchloride microtiter plates. The wells were blocked with 1% albumin for one hour, washed twice with RPMI-BSA, and incubated at 25° C. with 25 μl of [^3 H]-M. pneumoniae, approximately […]. After two hours, the wells were washed five times with saline, cut from the plate, and bound radioactivity was quantified in a scintillation counter. In control experiments, organisms were incubated with auxiliary lipids only to correct for nonspecific binding, typically <1% of the total radioactivity added. M. pneumoniae binding was determined in RPMI-BSA for sulfatide ( .circle. ), lactosylceramide, paragloboside, and cholesterol sulfate, ceramide trihexoside, globoside, GM1, GM2, or GM3 ( .largecircle.).
Binding of [^3 H]-M. pneumoniae was determined in RPMI-BSA for two hours at 4° C., 25° C. ( .circle. ), 37° C., and at 37° C. in BSA without RPMI (Δ).

CC(=O)NC1C(O)CC(OC2C(O)C(CO)OC(OC3C(CO)OC(O)C(O)C3O)C2O)(C(=O)O)OC1C(O)C(O)CO (centres unmarked) [3'-sialyllactose]
IC50 ([1]; oligosaccharide concentrations as sialic acid, read-out: I.D.50, substrate sulfatide): > 5000 µM | inhibition of binding to sulfatide (in words) ([1]; sulfatide adsorbed on plastic): Neither laminin nor 3'-sialyllactose inhibits M. pneumoniae attachment to sulfatide; also recorded: does not inhibit binding to sulfatide | inhibition of adhesion to WiDr cells (in words) [2]: partially inhibit | inhibition of adhesion to WiDr cells (in words) ([2]; listed as 3'-Sialyllactose): The inhibition is dose dependent | control adhesion remaining ([2]; WiDr, more than ten-fold higher than ID50 for binding to laminin, 60 min): 40% | inhibition of binding to laminin (in words) ([3]; laminin adsorbed on plastic): inhibited by 3'-sialyllactose at comparable concentrations; also recorded: inhibit attachment of M. pneumoniae to laminin | IC50 [3]: 300 µM | inhibition of non-specific adhesion to coverslips (in words) ([4]; coverslips preincubated in medium containing fetal calf serum): specifically inhibited | inhibition of nonspecific binding to coverslips (in words) ([4]; coverslips preincubated in tris-BSA): does not inhibit nonspecific binding

CC(=O)NC1C(O)CC(OCC2OC(OC3C(CO)OC(O)C(O)C3O)C(O)C(O)C2O)(C(=O)O)OC1C(O)C(O)CO (centres unmarked) [6'-sialyllactose]
Binding % of control ([3]; 5 mM inhibitor, laminin substrate, 60 min): 54 % of control | relative inhibitory activity, binding to laminin (in words) ([3]; compared with 3'-sialyllactose or other fetuin oligosaccharide fractions): at least ten-fold less active | IC50 [3]: > 5000 µM

Human α1 -acid glycoprotein: glycoprotein
M. pneumoniae adhesion to immobilized glycoprotein (in words) [5]: neither protein binds M. pneumoniae well | M. pneumoniae adhesion to immobilized glycoprotein (in words) ([5]; listed as alpha-1-acid glycoprotein): weakly active | Relative binding activity ([5]; relative to fetuin = 1.0, from amount for half maximal binding, mean of 2 or 3 experiments): 0.03 | inhibition of erythrocyte adhesion to M. pneumoniae (in words) [6]: inhibit erythrocyte adhesion to M. pneumoniae better than fetuin

galactosyl ceramide-I^3 -sulfate [Sulfatide]
Binding (ability to bind M. pneumoniae) ([7]; Table I, class by amount of lipid bound): +++ (positive binding to less than 0.5 μg) | binding of M. pneumoniae to glycolipid (in words) ([7]; listed as galactosyl ceramide I^3 -sulfate): does not discriminate between galactosyl ceramide I^3 -sulfate and its unnatural 6-sulfate isomer | binding of M. pneumoniae to glycolipid (in words) ([7]; listed as sulfatide): bound strongly; also recorded: bound avidly | amount of glycolipid detected by M. pneumoniae overlay ([7]; thin layer chromatogram, lane C3): 100 ng | binding activity at 4° C. ([8]; 4° C., RPMI-BSA): almost completely abolished; also recorded: minimal | binding activity at 25° C. (relative to 37° C.) ([8]; 25° C., RPMI-BSA): about five times lower | amount of sulfatide required for half-maximum binding ([8]; 37° C., RPMI-BSA): about 0.25 μg | binding in nutrient-deficient medium ([8]; 37° C., Tris-BSA without RPMI): almost completely abolished; also recorded: bound poorly | binding in RPMI medium at 37° C. ([8]; RPMI medium, 37° C. / physiological temperatures): maximal | binding of M. pneumoniae to immobilized lipid (in words) ([8]; microtiter plate, up to 10 μg per well): good dose response; also recorded: bind to sulfatide adsorbed on plastic; also recorded: sensitive and dose-dependent
